Structures can show the parent of a compound that is named as a salt. Marks after values point to notes of the source that are not given here.
How the values were obtained:
[1] = system: Kunming mice; test: Acetic acid-induced abdominal writhing test in mice; type: in vivo; conditions: 1 h before 0.7% acetic acid i.p.
Method: Acetic Acid-Induced Abdominal Writhing Test in Mice
Kunming mice, SPF KM mice purchased from […] SLAC LABORATORY ANIMAL CO. LTD and kept in normal environment.
(§1) 2. Modes of Administration
The compounds were dissolved in water for injection at a concentration of 4 mg/ml, 2 mg/ml and 1 mg/ml and were given intragastrically to animals.
(§2) Three different doses (10, 20, and 40 mg/kg) were administered to the test groups.
Aspirin was used as a positive control and acetic acid writhing test was used.
30 mice (half male and half female) weighing 18-23 g were divided into five groups, including negative control group, positive control group, low dose group, medium dose group and high dose group:
Mice in test group received test drug (10 mg/kg, 20 mg/kg, 40 mg/kg) via intragastric administration. Negative control group received physiological saline (20 ml/kg) via oral administration. Positive control group received aspirin (200 mg/kg) via oral administration. One hour later, each group received 0.7% acetic acid 10 ml/kg intraperitoneally. Five minutes later, the number of writhes was counted within the subsequent 15 min period; inhibition percentage of writhing response in each test group was calculated by the following equation: […]

[2] = system: Kunming mice; test: Hot-plate test in mice; type: in vivo; conditions: 1 h post dose, hot plate 55° C.
Method: Kunming mice, SPF KM mice were purchased from […] SLAC LABORATORY ANIMAL CO. LTD and kept in normal environment.
as §1
The compounds were dissolved in water for injection at a concentration of 4 mg/ml, 2 mg/ml and 1 mg/ml and were given subcutaneously to animals.
as §2
Morphine was used as a positive control and hot plate test was used.
30-40 mice (half male and half female) weighing 18-23 g were used. First, each mouse was placed on a hot plat at 55° C. to determine basic pain threshold for 2-3 times. Those animals with basic pain threshold of 5-30 s were qualified, unqualified mice were not used. 30 qualified mice were divided into five groups, including negative control group, positive control group, low-dose group, medium-dose group and high-dose group:
Mice in test groups received test sample solution (10 mg/kg, 20 mg/kg, 40 mg/kg) via subcutaneous injection in the neck. Positive control group received subcutaneous injection of morphine (2 mg/kg). One hour later, pain threshold values were determined for mice in each group as post-drug pain threshold. Percentage increase in pain threshold was calculated according to the following equation: […]

[3] = molecular target: opioid receptor subtype δ (Homo sapiens, UniProt P41143); test: Competitive radioligand binding ([3H]Diprenorphine), opioid receptor subtype δ; conditions: read-out: Inhibition percentage of competitive binding, δ
Method: (§3) Competitive Binding Between the Compounds and Opioid Receptor Subtypes μ, δ, κ
(§4) The respective test compounds were added to the sample tube (final concentration of 10^−5M), incubated at 37° C. for 30 min and placed in ice bath to terminate the reaction. The reaction mixture was filtered through GF/C(Whatman) glass fiber filter by vacuum filtration on a Millipore sample collector. The filter was washed three times with 50 mM Tris-HCl (pH7.4), each with 4 ml; dried and transferred into a 0.5 ml Eppendorf tube, in which 0.5 ml lipophilic scintillation fluid was added. Radioactivity was detected by a LS6500 scintillation counter. Each concentration had three duplicate test tubes and each separate test was repeated 3 to 4 times.
(§5) Specific binding CMP value for each sample tube=overall binding CPM value for each sample tube-CPM value of non-specific binding tube. [Inhibition percentage of competitive binding between the test compound and different opioid receptor subtypes (%)=(100%−specific binding (CPM value) of sample tube/specific binding (CPM value) of solvent group×100%)]
Average was taken for each test drug from three duplicate tubes; each test was repeated two or more times. Data were presented as mean±SE and statistical comparison was made by ANOVA.

[4] = in vivo; conditions: mouse, po, mice
Text: Studies of Acute Toxicity of the Compound I-1 and I-20
For statistics of 1-20, Bliss method was used (“Experimental Design and Statistical Basis for Drug Evaluation”, Changxiao Liu, Ruiyuan Su, first edition, Military Medical Science Press, 1993, 80-90).

[5] = molecular target: opioid receptor subtype κ (Homo sapiens, UniProt P41145); test: biochemical; type: binding; conditions: test concentration 10^−5 mol/L; [3H]Diprenorphine 0.4 nM; mean±SE; read-out: Inhibition percentage of competitive binding, κ
Method: as §3, §4, §5
(§6) Average was taken for each test drug from three duplicate tubes; each test was repeated two or more times.

[6] = molecular target: opioid receptor subtype μ (Homo sapiens, UniProt P35372); test: biochemical; type: binding; conditions: test concentration 10^−5 mol/L; [3H]Diprenorphine 0.4 nM; mean±SE; read-out: Inhibition percentage of competitive binding, μ
Method: as §3, §4, §5, §6

Sequence of opioid receptor subtype δ (P41143 whole entry): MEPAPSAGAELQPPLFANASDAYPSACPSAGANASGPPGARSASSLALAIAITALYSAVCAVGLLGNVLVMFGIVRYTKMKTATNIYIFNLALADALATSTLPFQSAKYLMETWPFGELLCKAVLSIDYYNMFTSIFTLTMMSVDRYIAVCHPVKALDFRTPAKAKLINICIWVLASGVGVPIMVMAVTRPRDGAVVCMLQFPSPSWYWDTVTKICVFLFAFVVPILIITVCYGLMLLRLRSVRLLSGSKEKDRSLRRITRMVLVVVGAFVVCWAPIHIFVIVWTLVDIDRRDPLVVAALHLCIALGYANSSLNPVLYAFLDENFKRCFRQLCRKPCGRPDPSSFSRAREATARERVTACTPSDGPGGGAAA
Sequence of opioid receptor subtype κ (P41145 whole entry): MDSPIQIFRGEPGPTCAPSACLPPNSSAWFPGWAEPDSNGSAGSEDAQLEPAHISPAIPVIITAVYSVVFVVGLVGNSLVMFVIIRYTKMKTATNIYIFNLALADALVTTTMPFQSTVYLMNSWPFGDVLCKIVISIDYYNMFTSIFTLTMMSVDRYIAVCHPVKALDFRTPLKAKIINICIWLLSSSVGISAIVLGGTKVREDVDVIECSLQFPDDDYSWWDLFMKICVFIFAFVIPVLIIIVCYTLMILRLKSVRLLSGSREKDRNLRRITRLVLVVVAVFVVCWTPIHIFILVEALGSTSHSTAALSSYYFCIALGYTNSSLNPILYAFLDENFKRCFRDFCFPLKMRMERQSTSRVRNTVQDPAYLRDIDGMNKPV
Sequence of opioid receptor subtype μ (P35372 whole entry): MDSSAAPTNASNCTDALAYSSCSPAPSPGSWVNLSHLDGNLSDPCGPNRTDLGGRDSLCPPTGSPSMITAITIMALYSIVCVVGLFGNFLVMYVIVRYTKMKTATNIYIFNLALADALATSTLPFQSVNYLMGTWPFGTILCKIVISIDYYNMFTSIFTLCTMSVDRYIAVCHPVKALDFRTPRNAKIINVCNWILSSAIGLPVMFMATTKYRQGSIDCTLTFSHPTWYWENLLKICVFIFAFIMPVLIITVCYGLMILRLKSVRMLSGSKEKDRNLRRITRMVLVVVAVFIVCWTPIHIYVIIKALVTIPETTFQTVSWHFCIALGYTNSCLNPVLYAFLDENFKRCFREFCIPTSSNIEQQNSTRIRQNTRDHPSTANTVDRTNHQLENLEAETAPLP

Row | Compound | Inhibition percentage of writhing response ([1]; 10 mg/kg Ig) | Inhibition percentage of writhing response ([1]; 20 mg/kg Ig) | Inhibition percentage of writhing response ([1]; 40 mg/kg Ig) | also measured
1 | COc1ccccc1N1CCN(C(C)C(O)c2ccc3[nH]c(=O)[nH]c3c2)CC1 (racemic) (as salt: hydrochloride) |  |  |  | melting point: 221 to 223 °C
2 | CC(C(O)c1ccc2[nH]c(=O)sc2c1)N1CCN(c2cccc(C(F)(F)F)c2)CC1 (racemic) (as salt: hydrochloride) |  |  |  | melting point: 217 to 219 °C
3 | COc1ccccc1N1CCN([C@@H](C)[C@H](O)c2ccc3c(c2)CC(=O)N3)CC1 (racemic) (as salt: hydrochloride) [IV-1, (1RS,2SR)-5-(1-hydroxy-2-(4-(2-methoxyphenyl)piperazin-1-yl)propyl)indolin-2-one] |  |  |  | melting point: 213 to 215 °C
4 | C[C@@H]([C@H](O)c1ccccc1)N1CCN(c2cccc(C(F)(F)F)c2)CC1 (racemic) [Compound I-1, (1RS,2SR)-1-phenyl-2-(4-(3-trifluoromethylphenyl)piperazinyl)-propan-1-ol] | 64.38 * % | 68.13 * % | 83.13 ** % | Percentage increase in pain threshold ([2]; 10 mg/kg S.c.): 4.53%; Percentage increase in pain threshold ([2]; 20 mg/kg S.c.): 11.7%; Percentage increase in pain threshold ([2]; 40 mg/kg S.c.): 89.62 ** %; inhibition at 10 µM [3]: 0%; LD50 [4]: > 2000 mg/kg; inhibition at 10 µM [5]: 2.7 ± 0.9%; inhibition at 10 µM [6]: 22.7 ± 2.2%
5 | C[C@H]([C@H](O)c1ccccc1)N1CCN(c2cccc(C(F)(F)F)c2)CC1 (racemic) [Compound I-2, (1RS,2RS)-1-phenyl-2-(4-(3-trifluoromethylphenyl)piperazinyl)-propan-1-ol] | 40.53% | 63.16 * % | 68.95 * % | 
6 | C[C@@H]([C@H](O)c1ccccc1)N1CCN(c2cccc(Cl)c2)CC1 (racemic) [Compound I-3, (1RS,2SR)-1-phenyl-2-(4-(3-chlorophenyl)piperazinyl)-propan-1-ol] | 49.61% | 76.38 * % | 83.46 ** % | 
7 | C[C@H]([C@H](O)c1ccccc1)N1CCN(c2cccc(Cl)c2)CC1 (racemic) [Compound I-4, (1RS,2RS)-1-phenyl-2-(4-(3-chlorophenyl)piperazinyl)-propan-1-ol] | 35.00% | 49.38 * % | 78.13 ** % | 
8 | COc1ccc(N2CCN([C@@H](C)[C@H](O)c3ccccc3)CC2)cc1 (racemic) [Compound I-7, (1RS,2SR)-1-phenyl-2-(4-(4-methoxyphenyl)piperazinyl)-propan-1-ol] | 61.02% | 75.42 ** % | 70.34 * % | 
9 | COc1ccc([C@@H](O)[C@H](C)N2CCN(c3ccccc3OC)CC2)cc1 (racemic) [Compound I-13, (1RS,2SR)-1-(4-methoxyphenyl)-2-(4-(2-methoxyphenyl)piperazinyl)-propan-1-ol] | 73.33 * % | 84.55 * % | 87.88 ** % | Percentage increase in pain threshold ([2]; 10 mg/kg S.c.): 16.19%; Percentage increase in pain threshold ([2]; 20 mg/kg S.c.): 74.59 * %; Percentage increase in pain threshold ([2]; 40 mg/kg S.c.): 142.41 ** %
10 | COc1ccc([C@@H](O)[C@@H](C)N2CCN(c3ccccc3OC)CC2)cc1 (racemic) [Compound I-14, (1RS,2RS)-1-(4-methoxyphenyl)-2-(4-(2-methoxyphenyl)piperazinyl)-propan-1-ol] | 74.55 * % | 79.39 * % | 76.36% | 
11 | C[C@@H]([C@H](O)c1ccc(NS(C)(=O)=O)cc1)N1CCN(c2cccc(C(F)(F)F)c2)CC1 (racemic) [Compound I-17, (1RS,2SR)-1-(4-methanesulfonamidophenyl)-2-(4-(3-trifluoromethylphenyl)piperazinyl)-propan-1-ol] |  |  |  | Percentage increase in pain threshold ([2]; 10 mg/kg S.c.): 59.02%; Percentage increase in pain threshold ([2]; 20 mg/kg S.c.): 147.36 ** %; Percentage increase in pain threshold ([2]; 40 mg/kg S.c.): 172.27 ** %
12 | COc1ccccc1N1CCN([C@@H](C)[C@H](O)c2ccc3c(c2)CC(=O)N3)CC1 (racemic) [IV-1, (1RS,2SR)-5-(1-hydroxy-2-(4-(2-methoxyphenyl)piperazin-1-yl)propyl)indolin-2-one] | 92.92 ** % | 74.34 * % | 89.38 ** % | inhibition at 10 µM [3]: 0%; inhibition at 10 µM [5]: 5.3 ± 0.1%; inhibition at 10 µM [6]: 7.6 ± 0.8%
13 | COc1ccccc1N1CCN([C@H](C)[C@H](O)c2ccc3c(c2)CC(=O)N3)CC1 (racemic) [IV-2, (1RS,2RS)-5-(1-hydroxy-2-(4-(2-methoxyphenyl)piperazin-1-yl)propyl)indolin-2-one] | 98.23 ** % | 97.35 ** % | 93.81 ** % | 
14 | CC(=O)Oc1ccccc1C(=O)O [Aspirin, reference compound] |  |  |  | Inhibition percentage of writhing response ([1]; positive control aspirin 200 mg/kg oral): 95.05 ** %
15 | COc1ccccc1N1CCN([C@@H](C)[C@H](O)c2ccccc2)CC1 [II-1, (1R,2S)-1-phenyl-2-(4-(2-methoxyphenyl)piperazinyl)-propan-1-ol] | 30.09% | 47.79 * % | 58.41 * % | 
16 | COc1ccccc1N1CCN([C@@H](C)[C@@H](O)c2ccccc2)CC1 [II-2, (1S,2S)-1-phenyl-2-(4-(2-methoxyphenyl)piperazinyl)-propan-1-ol] | 69.91 * % | 71.48 * % | 74.34 ** % | inhibition at 10 µM [3]: 12.8 ± 0.8%; inhibition at 10 µM [5]: 36.5 ± 1.6%; inhibition at 10 µM [6]: 5.3 ± 0.9%
17 | COc1ccccc1N1CCN([C@H](C)[C@@H](O)c2ccccc2)CC1 [III-1, (1S,2R)-1-phenyl-2-(4-(2-methoxyphenyl)piperazinyl)-propan-1-ol] | 69.28 ** % | 55.56 * % | 67.32 ** % | 
18 | COc1ccccc1N1CCN([C@H](C)[C@H](O)c2ccccc2)CC1 [III-2, (1R,2R)-1-phenyl-2-(4-(2-methoxyphenyl)piperazinyl)-propan-1-ol] | 64.05 ** % | 76.47 ** % | 86.27 ** % | Percentage increase in pain threshold ([2]; 10 mg/kg S.c.): 72.91%; Percentage increase in pain threshold ([2]; 20 mg/kg S.c.): 133.48 * %; Percentage increase in pain threshold ([2]; 40 mg/kg S.c.): 151.86 * %; inhibition at 10 µM [3]: 16.8 ± 2.3%; inhibition at 10 µM [5]: 40 ± 0.6%; inhibition at 10 µM [6]: 25.1 ± 1.3%
19 | CN1CC[C@]23c4c5ccc(O)c4O[C@H]2[C@@H](O)C=C[C@H]3[C@H]1C5 [morphine, reference compound] |  |  |  | Percentage increase in pain threshold ([2]; positive control morphine 2 mg/kg S.c.): 202.5 ** %

Source: patent publication US8778948B2, “Substituted phenylpiperazinyl aralkylalcohol derivatives, pharmaceutical compositions containing such derivatives and uses thereof” (priority 2008, dated 2014)
